Consider one substance from patent US12514907B2, “Treatment of exercise-induced hypoglycemia in type 1 and insulin using type 2 diabetes” (Xeris Pharmaceuticals, Inc., priority 2017, dated 2026).

Assay [1] relates to patients with T1D. Description: Plasma glucose (YSI analyzer) during exercise/early recovery and post meal, randomized 4-period crossover trial. The format is in vivo, human. From the text: Visit Schedule. (1) Screening/Baseline Visit. This visit will be used to assess eligibility and can include determination of VO2 max for fitness evaluation and for the determination of exercise intensity for the study. (2) Randomized Crossover Trial. Each participant will undergo four aerobic exercise sessions (in random order), with different strategies for glucose regulation that include: (i) Control: Fasted exercise, no basal insulin reduction; (ii) Strategy 1: Fasted exercise, basal insulin reduction only (50% reduction in basal rate five minutes before exercise, for the duration of the exercise); (iii) Strategy 2: Fasted exercise, no basal adjustment+pre-exercise glucose tabs (buccal route-40 grams in total); (iv) Strategy 3: Fasted exercise, no basal adjustment+pre-exercise mini-dose glucagon (sc). In all 4 sessions, aerobic exercise will be performed in the fasted state (before a standardized meal) for 45 minutes at ˜50-55% of the participant's predetermined aerobic capacity. The strategies for select sessions will be blinded. Sample collection. Blood samples collected through a venous catheter with plasma glucose measured by an YSI analyzer. Blood samples will be collected at: Baseline (at −30, −15, −5, 0 min), During exercise (at 5, 10, 15, 25, 35, 45 min), In recovery post exercise (at 50, 55, 60, 75 min), Regularly following a standardized mixed meal for 90 minutes (at 90, 105, 120, 135, and 165 min). Plasma from the collected blood samples will be used to measure the following hormones, proinflammatory markers and metabolites at baseline, during exercise, in recovery post exercise, and regularly following the standardized mixed meal: Insulin, Glucagon, Cortisol, Growth hormone, Catecholamines (epinephrine and norepinephrine), Interleukin-6, tumor necrosis factor-α, Nonesterified fatty acids, β-hydroxybutyrate, and/or Lactate. […]

Assay [2] deals with patients with T1D. The experiment in a line: CGM metrics after exercise session, randomized 4-period crossover trial of mini-dose glucagon in T1D. The conditions noted are these: no statistically significant differences. Type of assay: in vivo, human. The text has this: Visit Schedule. (1) Screening/Baseline Visit. This visit will be used to assess eligibility and can include determination of VO2 max for fitness evaluation and for the determination of exercise intensity for the study. (2) Randomized Crossover Trial. Each participant will undergo four aerobic exercise sessions (in random order), with different strategies for glucose regulation that include: (i) Control: Fasted exercise, no basal insulin reduction; (ii) Strategy 1: Fasted exercise, basal insulin reduction only (50% reduction in basal rate five minutes before exercise, for the duration of the exercise); (iii) Strategy 2: Fasted exercise, no basal adjustment+pre-exercise glucose tabs (buccal route-40 grams in total); (iv) Strategy 3: Fasted exercise, no basal adjustment+pre-exercise mini-dose glucagon (sc). In all 4 sessions, aerobic exercise will be performed in the fasted state (before a standardized meal) for 45 minutes at ˜50-55% of the participant's predetermined aerobic capacity. The strategies for select sessions will be blinded. The day before each exercise session participants will: Insert new insulin infusion set into abdomen or upper buttock (ensure not in exercising limb); For CGM users, insert a new CGM sensor; For non-CGM users, come into clinic to have a CGM sensor inserted to use with a blinded receiver. For participants using the blinded CGM, the sensor will be removed at 12:00 PM the next day at home (˜24 hours after the end of exercise). The participant will bring the device to the next visit or mail it back to the clinic. Participants will receive a phone call the day after each exercise session to elicit any adverse events. For CGM users, the CGM data will be downloaded at each visit and arrangements made to transmit the data following the last exercise session. The participant's insulin pump will be downloaded at each visit and arrangements made to transmit the data following the last exercise session. Subjects aged 18-<65 years with a duration of T1D ≥2 years, a random C-peptide <0.6 ng/ml, that use CSII (Insulin pump) for at least 6 months, with no plans to discontinue pump use during the study and exercise regularly, ≥30 minutes moderate or more vigorous aerobic activity X≥3 times/week were randomized in a 4-period crossover trial. The control was no basal insulin adjustment, no carbs unless glucose <70 mg/dL (then 20 g dextrose given). Basal Rate Reduction: Basal rate decreased by 50% 5 minutes before start of exercise (basal rate returned to usual rate at end of exercise). Glucose Tabs: Dextrose tabs orally (20 grams) 5 min before start of exercise and 20 grams again at 30 min after start. Mini-Dose Glucagon: Glucagon (150 μg) 5 min before start of exercise (SQ-abdomen). Exercise consisted of moderate intensity aerobic activity (treadmill brisk uphill walking) performed at 50-55% VO2 max for 45 min. Performed in fasted state. Same workload performed at each exercise session. Exercise was terminated if: glucose <70 mg/dL (participant treated for hypo) and/or participant experienced dizziness, pallor and other symptoms of poor perfusion and/or exercise intolerance. Following each exercise session, participants rested for 30 min and then consumed a standardized meal. Meal contained 44-50 grams of carbohydrate (55% of calories from carbohydrate, 20% from protein, and 25% from fat). Insulin is administered as pump bolus 5 min before standardized meal using participants own carbohydrate ratio with correction only if glucose ≥270 mg/dL.

[3] abbreviates: late recovery period (standard meal to noon the day after exercise session), mean.
The mark [4] stands for this setting: late recovery period (standard meal to noon the day after exercise session), median.
[5] abbreviates: overnight (midnight to 6 am the day after exercise session), mean.
Setting [6] is: overnight (midnight to 6 am the day after exercise session), median.

As to glucagon [MDG], the post-intervention hyperglycemia result in the assay with patients with T1D [1] (compared with ingestion of carbohydrate) was “less post-intervention hyperglycemia than ingestion of carbohydrate”. In addition, in the assay on patients with T1D [1] (compared with insulin reduction), the reducing exercise-induced hypoglycemia result is recorded as “more effective than insulin reduction”. Also, in the assay with patients with T1D [1] (given just before aerobic exercise, people with type 1 diabetes), the “frequency of a drop in glucose concentration” value is reported as “reduces the frequency of a drop in glucose concentration”. In addition, in the assay with patients with T1D [2] (setting [3]), the “% of time 70-180 mg/dL-mean” value was 66% and the “% of time <70 mg/dl-mean” value is 7%. Moreover, in the assay with patients with T1D [2] (setting [4]), the “Coefficient of Variation-median” value is reported as 34%; the “Mean Glucose, mg/dL-median” value came to 150 mg/dL; the “Nadir Glucose, mg/dL-median” value was found to be 51 mg/dL. In the assay with patients with T1D [2] (setting [5]), the “% of time 70-180 mg/dl-mean” value is 59% and the “% of time <70 mg/dl-mean” value amounted to 4%. In the assay with patients with T1D [2] (setting [6]), the “Coefficient of Variation-median” value was 21%; the “Mean Glucose, mg/dl-median” value amounted to 156 mg/dL; the “Nadir Glucose, mg/dL-median” value worked out at 91 mg/dL. Further, the “Occurrence of Hypoglycemia (<70 mg/dL)-%” value in the assay with patients with T1D [2] (overnight (midnight to 6 am the day after exercise session)) was 23%.
